Columns and labels:
[1] = system: pRab10; assay: Rab10 dephosphorylation in R1441C LRRK2 MEFs; assay type: cell-based; conditions: Mus musculus, 4 h, read-out: EC50s (pRab10)
Source text: Primary MEFs were generated as described in a previous study.[80] Briefly, the uterine horn was collected from adult female mice at day E12.5 and transferred to a 10 cm tissue culture dish containing cold PBS. Two forceps were used to tear the yolk sacs to isolate each embryo. Forceps were cleaned thoroughly with 70% ethanol between each embryo isolation. The embryos were culled, and a tissue piece was collected in a polymerase chain reaction (PCR) tube for genotyping. The red tissue of the embryo was removed, and the remainder was minced with a scalpel blade and incubated with a 7.5 mL trypsin–ethylenediaminetetraacetic acid (EDTA) solution for 10 min in a 37 °C, 5% CO2 tissue culture incubator. The dish was removed from the incubator and checked under a light microscope for single cells. Complete media (7.5 mL) was added to the trypsinized cells, and the cell suspension was transferred to a 15 mL Falcon tube and centrifuged at 1200 rpm for 5 min at room temperature. […]
Culturing and passaging of adherent cell lines were carried out using an aseptic technique in CL1 or CL2 (for PBMC isolation) biological safety cabinets. […] The cell pellet was discarded, and the supernatant was collected for analysis by quantitative immunoblotting. […] Protein concentrations of cell lysates were determined using the Bradford assay. […]

[2] = system: mito-QC MEFs; assay: Mitophagy in mito-QC MEFs; assay type: cell-based, mouse; conditions: 24 h treatment
Source text: Mitochondrial dysfunction is one of the pathophysiological hallmarks of PD[73] and can be rescued by mitophagy, a quality control mechanism whereby damaged or unnecessary mitochondria are delivered to lysosomes for degradation through membrane trafficking.[8] It has been shown that increasing mitophagy with inducer agents has the potential as a PD therapy.[74] Previous studies have shown that the LRRK2 kinase activity impairs basal mitophagy and that LRRK2 knockout or pharmacological inhibition of LRRK2 with kinase inhibitors was able to rescue the mitophagy level.[8]
Data are represented as mean ± SEM from three to five independent experiments.
Immortalized mito-QC MEFs[8],[93] were maintained in DMEM (Gibco, 11960–044) supplemented with 10% FBS, 2 mM L-glutamine (Gibco, 2503-081), 1% Na-pyruvate (Gibco, 11360-070), 1% nonessential amino acids (Gibco, 11140–035), and 1% antibiotics (penicillin/streptomycin, 100 U/mL penicillin and 100 μg/mL streptomycin; Gibco) at 37 °C under a humidified 5% CO2 atmosphere. […] Quantification of red-only dots was semiautomatized using the mito-QC counter plugin on FIJI, as previously described,[8],[94] using the following parameters: radius for smoothing images = 2, ratio threshold = 1.5, and red channel threshold = mean + 1 SD. […]

[3] = target: T1, R1441C LRRK2 (Mus musculus, UniProt Q5S006, R1441C); assay: LRRK2 degradation in R1441C LRRK2 MEFs; assay type: cell-based; conditions: 4 h
T1 construct: endogenous in cells; host or cells: R1441C LRRK2 MEFs
T1 sequence (Q5S006 whole entry R1441C): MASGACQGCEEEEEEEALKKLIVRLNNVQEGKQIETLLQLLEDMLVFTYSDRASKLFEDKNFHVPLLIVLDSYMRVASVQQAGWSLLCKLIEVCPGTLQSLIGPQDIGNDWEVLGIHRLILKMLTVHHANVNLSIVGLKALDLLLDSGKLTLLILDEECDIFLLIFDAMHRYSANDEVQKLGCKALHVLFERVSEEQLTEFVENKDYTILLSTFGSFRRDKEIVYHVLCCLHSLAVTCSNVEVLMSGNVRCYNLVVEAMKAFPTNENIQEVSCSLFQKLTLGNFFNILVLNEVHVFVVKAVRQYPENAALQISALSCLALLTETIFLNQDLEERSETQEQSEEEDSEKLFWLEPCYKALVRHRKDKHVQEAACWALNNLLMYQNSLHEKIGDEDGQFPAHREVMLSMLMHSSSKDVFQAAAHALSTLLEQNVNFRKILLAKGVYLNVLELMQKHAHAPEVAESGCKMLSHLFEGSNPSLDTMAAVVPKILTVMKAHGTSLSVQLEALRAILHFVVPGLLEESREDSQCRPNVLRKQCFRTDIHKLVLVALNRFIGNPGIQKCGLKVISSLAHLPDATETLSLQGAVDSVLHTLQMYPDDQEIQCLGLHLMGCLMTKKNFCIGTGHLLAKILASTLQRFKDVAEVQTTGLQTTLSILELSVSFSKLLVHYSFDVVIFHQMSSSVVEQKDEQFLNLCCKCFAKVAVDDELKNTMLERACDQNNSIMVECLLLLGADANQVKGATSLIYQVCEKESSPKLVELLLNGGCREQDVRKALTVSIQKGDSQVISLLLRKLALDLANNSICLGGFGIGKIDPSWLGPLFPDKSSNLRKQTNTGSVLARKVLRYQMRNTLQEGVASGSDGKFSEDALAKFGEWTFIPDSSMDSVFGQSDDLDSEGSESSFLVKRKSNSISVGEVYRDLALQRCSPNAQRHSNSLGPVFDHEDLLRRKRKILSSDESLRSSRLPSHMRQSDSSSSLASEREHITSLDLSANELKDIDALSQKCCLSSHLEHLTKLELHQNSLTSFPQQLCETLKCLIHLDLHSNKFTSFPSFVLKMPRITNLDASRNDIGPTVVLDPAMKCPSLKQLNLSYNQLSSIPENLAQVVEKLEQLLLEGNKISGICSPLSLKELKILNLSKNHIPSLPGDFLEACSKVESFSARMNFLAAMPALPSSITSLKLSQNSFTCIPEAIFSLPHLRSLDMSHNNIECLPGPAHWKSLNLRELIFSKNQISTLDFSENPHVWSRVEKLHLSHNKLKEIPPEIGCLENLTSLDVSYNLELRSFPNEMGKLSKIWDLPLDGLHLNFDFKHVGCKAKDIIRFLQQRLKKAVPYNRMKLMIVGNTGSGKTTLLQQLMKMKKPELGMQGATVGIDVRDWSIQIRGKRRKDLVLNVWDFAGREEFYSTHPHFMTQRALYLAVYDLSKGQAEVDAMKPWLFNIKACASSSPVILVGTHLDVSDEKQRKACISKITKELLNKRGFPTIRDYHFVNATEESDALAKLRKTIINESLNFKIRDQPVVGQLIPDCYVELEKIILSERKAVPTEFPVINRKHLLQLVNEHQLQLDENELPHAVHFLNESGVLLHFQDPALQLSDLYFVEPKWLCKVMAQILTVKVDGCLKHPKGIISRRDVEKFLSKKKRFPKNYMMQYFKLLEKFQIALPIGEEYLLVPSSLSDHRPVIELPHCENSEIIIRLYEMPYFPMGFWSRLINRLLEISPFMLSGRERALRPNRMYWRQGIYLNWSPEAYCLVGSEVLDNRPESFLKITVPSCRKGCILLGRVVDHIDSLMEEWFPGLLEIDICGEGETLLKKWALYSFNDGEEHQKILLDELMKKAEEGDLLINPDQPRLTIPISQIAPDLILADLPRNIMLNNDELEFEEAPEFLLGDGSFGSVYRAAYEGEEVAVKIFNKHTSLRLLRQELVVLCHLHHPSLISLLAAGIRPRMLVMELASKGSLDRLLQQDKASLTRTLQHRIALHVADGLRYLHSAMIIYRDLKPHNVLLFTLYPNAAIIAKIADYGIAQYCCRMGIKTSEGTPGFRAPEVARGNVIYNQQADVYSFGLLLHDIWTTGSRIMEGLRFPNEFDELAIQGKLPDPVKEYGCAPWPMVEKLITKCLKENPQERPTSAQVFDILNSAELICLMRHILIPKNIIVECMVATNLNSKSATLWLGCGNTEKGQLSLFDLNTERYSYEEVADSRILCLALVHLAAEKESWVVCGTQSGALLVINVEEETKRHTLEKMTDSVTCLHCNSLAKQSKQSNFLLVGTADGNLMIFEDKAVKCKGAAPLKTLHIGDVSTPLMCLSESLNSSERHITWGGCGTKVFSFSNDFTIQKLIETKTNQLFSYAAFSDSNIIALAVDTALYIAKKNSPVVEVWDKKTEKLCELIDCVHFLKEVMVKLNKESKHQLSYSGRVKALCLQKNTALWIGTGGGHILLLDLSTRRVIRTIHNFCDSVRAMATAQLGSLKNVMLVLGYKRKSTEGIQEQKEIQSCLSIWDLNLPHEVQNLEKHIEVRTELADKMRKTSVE

Structure (SMILES) | EC50 [1] [nM] | mitophagy level (in words) [2] | DC50s (LRRK2) [3] | Dmax (LRRK2) [3]
CNc1nc(Nc2ccc(C(=O)N3CCN(C[C@H]4CC[C@H](CSC(C)(C)[C@H](NC(=O)C5(F)CC5)C(=O)N5C[C@@H](O)C[C@H]5C(=O)NCc5ccc(-c6scnc6C)cc5)CC4)CC3)cc2OC)ncc1Cl [cis-XL01126, (2S,4S)-1-((R)-3-((((1R,4R)-4-((4-(4-((5-Chloro-4-(methylamino)pyrimidin-2-yl)amino)-3-methoxybenzoyl)piperazin-1-yl)methyl)cyclohexyl)methyl)thio)-2-(1-fluorocyclopropane-1-carboxamido)-3-methylbutanoyl)-4-hydroxy-N-(4-(4-methylthiazol-5-yl)benzyl)pyrrolidine-2-carboxamide] | 158 | induced the mitophagy level dose-dependently | NDO | NDO
CNc1nc(Nc2ccc(C(=O)N3CCN(C[C@H]4CC[C@H](CSC(C)(C)[C@H](NC(=O)C5(F)CC5)C(=O)N5C[C@H](O)CC5C(=O)NCc5ccc(-c6scnc6C)cc5)CC4)CC3)cc2OC)ncc1Cl (stereo partly drawn) [XL01126, (2S,4R)-1-((R)-3-((((1R,4R)-4-((4-(4-((5-Chloro-4-(methylamino)pyrimidin-2-yl)amino)-3-methoxybenzoyl)piperazin-1-yl)methyl)cyclohexyl)methyl)thio)-2-(1-fluorocyclopropane-1-carboxamido)-3-methylbutanoyl)-4-hydroxy-N-(4-(4-methylthiazol-5-yl)benzyl)pyrrolidine-2-carboxamide] | 30 | induced the mitophagy level dose-dependently | 15 nM (4 h) | –

— article PMC9501899 (Journal of the American Chemical Society, 2022)
